Values after ≈ are worked out from the molar mass of the structure shown.
Columns and labels:
rice = test: Treatment of soil under submerged condition, post-emergence (Test 5), injury; type: in vivo; details: 30 g ai/a granule, 30 days later
Description: 1/5000-are Wagner pots were filled with soil. Seeds or tubers of barnyardgrass, Monochoria vaginalis, bulrush, Sagittaria pygmaea, Cyperus serroylnus and Eleocharis kuroguwai were seeded or planted under submerged condition. Two pairs of rice seedlings (2-3 leaf stage), which had been reared in advance, were transplanted to each pot and were allowed to grow in a green house. Each pair consisted of two rice seedlings. When the barnyardgrass grew to two-leaf stage, each pot was treated with a granule which had been prepared by processing a predetermined amount of the test composition in accordance with a similar method to the method described in Formulation Example 9. The state of emergence of weeds and the state of injury of rice were observed 30 days later.
In the table, the degrees of damages of the test plants and the degrees of injury of the rice are shown in a similar manner to Example 2.

peanut = test: Upland soil application test (Test 2), crop injury; type: in vivo; details: 30 g ai/a, soil spray before emergence, 30 days later
Description: (§1) Resin-made 1/2500-are pots were filled with the soil of an upland field. After they were fertilized, soybean, peanut and cotton were seeded and 2-3 cm soil covering was applied. Seeds of redroot pigweed, common lambsquarters, barnyardgrass, green foxtail, large crabgrass, foxtail meadow and johnsongrass had been uniformly mixed with the soil. They were allowed to germinate in a green house. One day later (before emergence of weeds), a wettable powder prepared from a predetermined amount of each test compound in a similar manner to the method described in Formulation Example 1 was diluted with water and then sprayed evenly at an application rate equal to 10 l per are onto the surface of the soil by means of a pressure-operated ULV (ultra low volume) sprayer. Influence to the crops and weeds were observed 30 days later. The results are shown in Table 3, in which the degree of damages of each test plant and the degree of injury to each crop were determined by comparing the air-dried weights of the test plant and crop with those of the corresponding plant and crop in untreated pots and are shown in accordance with the following standard: […]

soybean = test: Upland soil application test (Test 2), crop injury; type: in vivo; details: 30 g ai/a, soil spray before emergence, 30 days later
Description: as §1

cotton = test: Upland soil application test (Test 2), crop injury; type: in vivo; details: 30 g ai/a, soil spray before emergence, 30 days later
Description: as §1

[1] = test system: ALS (acetolactate syntase); test: ALS enzyme assay (Test 1); type: biochemical, pea; details: 1,000 ppm (0.5 mg/0.5 ml)
Description: (§2) To determine the selectivity in enzyme level between crops and weeds, and ALS enzyme assay was conducted using pea as a representative of broadleaf crops and barnyardgrass as a representative of narrowleaf weeds.
(§3) After seeds of pea and barnyardgrass were allowed to germinate at 25° C. for 8-14 days in a dark place, partially-purified suspensions (Suspensions A) of acetolactate syntase were separately obtained from seedlings in accordance with the method described in the literature, Plant Physiology, 75, 827-831.
(§4) In a test tube, 0.5 mg of one of test compounds was weighed, followed by the addition of 0.15 ml of a 20 mM K2 HPO4 solution and 0.25 ml of a reaction substrate medium which consisted of 40 mM of K2 HPO4, 40 mM of sodium pyruvate, 1 mM of TPP, 1 mM of MgCl2 and 20 μM of FAD so that 0.4 ml of a reaction solution (Solution B) was prepared. Added to 0.4 ml of Solution B was 0.1 ml of suspension A. After the resultant mixture was shaken for 1 hour in a thermostat water bath controlled at 30° C., 50 μl of 6N sulfuric acid were added to terminate the reaction.
(§5) Next, the reaction-terminated liquid mixture was transferred into a thermostat water bath controlled at 60° C. and was heated for 15 minutes. Thereafter, 0.5 ml of a 0.5% creatine solution and 0.5 ml of a 5% alkaline α-naphthol solution were added, and the resultant mixture was maintained at 60° C. for 15 minutes. As a result, the test solution developed a pink-red color. After the above operation, the absorbance of the test solution at 525 nm was measured by a spectrophotometer (Absorbance 1 of Test Compound).
(§6) On the other hand, the absorbance (Absorbance 2 of Blank) of a solution obtained by subjecting a portion of Solution B, said portion being free of the test compound, to the above operation and the absorbance (Absorbance 3 of sulfuric acid terminated) of another solution obtained by subjecting another portion of Solution B, said portion containing 50 μl of 6N sulfuric acid as a test compound, were measured at the same time. Based on the values of the respective measurements, the enzyme assay at 1,000 ppm (0.5 mg/0.5 ml) of each compound was determined. [formula]

[2] = test system: ALS (acetolactate syntase); test: ALS enzyme assay (Test 1); type: biochemical, barnyardgrass; details: 1,000 ppm (0.5 mg/0.5 ml)
Description: as §2, §3, §4, §5, §6

common lambsquarters = test: Upland foliar application test (Test 3); type: in vivo; details: 30 g ai/a, foliar spray at 2-3 leaves, 30th day
Description: (§7) Resin-made 1/10000-are pots were filled with the soil of an upland field. Redroot pigweed, common lambsquarters, foxtail meadow, johnsongrass, barnyardgrass, green foxtail, large crabgrass, soybean, peanut and cotton were separately seeded and were allowed to germinate in a green house. When each plant grew to the stage of 2-3 leaves, an emulsion formulated from a predetermined amount of each test compound in a similar manner to the method described in Formulation Example 11 was diluted with water to a predetermined dilution rate and then sprayed at an application rate equal to 5 l per are onto the foliage of each plant by means of a pressure-operated ULV (ultra low volume) sprayer. Influence to the crops and weeds were observed on the 30th day after the spray of the herbicides. The results are shown in Table 4 in which the degree of damages of each test plant and the degree of injury to each crop are shown in a similar manner to Test 2.

barnyardgrass = test: Upland foliar application test (Test 3); type: in vivo; details: 30 g ai/a, foliar spray at 2-3 leaves, 30th day
Description: as §7

redroot pigweed = test: Upland foliar application test (Test 3); type: in vivo; details: 30 g ai/a, foliar spray at 2-3 leaves, 30th day
Description: as §7

johnsongrass = test: Upland foliar application test (Test 3); type: in vivo; details: 30 g ai/a, foliar spray at 2-3 leaves, 30th day
Description: as §7

green foxtail = test: Upland foliar application test (Test 3); type: in vivo; details: 30 g ai/a, foliar spray at 2-3 leaves, 30th day
Description: as §7

large crabgrass = test: Upland foliar application test (Test 3); type: in vivo; details: 30 g ai/a, foliar spray at 2-3 leaves, 30th day
Description: as §7

foxtail meadow = test: Upland foliar application test (Test 3); type: in vivo; details: 30 g ai/a, foliar spray at 2-3 leaves, 30th day
Description: as §7

narrowleaf waterplantain = test: Petri dish test (Test 6); type: in vivo; details: 336 h; seeds on filter paper, 25° C., 14 days; read-out: I80 (ppm)
Description: A filter paper was placed in each glass-made Petri dish having a diameter of 9 cm. A compound dissolved in acetone was added in a predetermined amount. The filter paper was then dried in air to remove acetone. Seeds of narrowleaf waterplantain were placed on the filter paper and 10 ml of water were poured into the Petri dish. The seeds were allowed to grow at 25° C. in a bright room. Fourteen days later, the state of growth of narrowleaf water-plantain was observed.
In the table, the degree of damages of the test plant was determined by comparing the state of growth of the plant with that of the plant in an untreated group and is shown in accordance with the following standard: […]

Row | Compound | Inhibitory activity (%) Pea [1] | Inhibitory activity (%) Barnyardgrass [2] | Injury Rice (rice) | Injury Peanut (peanut) | Injury Soybean (soybean) | Injury Cotton (cotton) | Herbicidal effects Common lambsquarters (common lambsquarters) | Herbicidal effects Barnyardgrass (barnyardgrass) | Herbicidal effects Redroot pigweed (redroot pigweed) | Herbicidal effects Johnsongrass (johnsongrass) | Herbicidal effects Green foxtail (green foxtail) | Herbicidal effects Large crabgrass (large crabgrass) | Herbicidal effects Foxtail meadow (foxtail meadow) | IC80 (narrowleaf waterplantain)
1 | C=C(C)CON=Cc1ccccc1Oc1nc(OC)cc(OC)n1 [compound 5] | 0% | 64% | 0 (91-100 (No damages)) | 0 (91-100 (No damages)) | 0 (91-100 (No damages)) | 0 (91-100 (No damages)) | 4 (6-10 (Severe damages)) | 5 (0-5 (Death)) | 4 (6-10 (Severe damages)) | 5 (0-5 (Death)) | 5 (0-5 (Death)) | 5 (0-5 (Death)) | 5 (0-5 (Death)) | 17 µg/mL (≈ 51.6 µM)
2 | COc1cc(OC)nc(Oc2ccccc2C=NOCC=Cc2ccc(Cl)cc2)n1 [Compound No. 28] | 8% | 91% | 0 (91-100 (No damages)) | 0 (91-100 (No damages)) | 0 (91-100 (No damages)) | 0 (91-100 (No damages)) | 4 (6-10 (Severe damages)) | 5 (0-5 (Death)) | 4 (6-10 (Severe damages)) | 5 (0-5 (Death)) | 4 (6-10 (Severe damages)) | 4 (6-10 (Severe damages)) | 5 (0-5 (Death)) | 2 µg/mL (≈ 4.7 µM)
3 | COc1cc(OC)nc(Oc2ccccc2C=NOCC=C(C)C)n1 [Compound No. 7] | 0% | 84% | 0 (91-100 (No damages)) | 0 (91-100 (No damages)) | 0 (91-100 (No damages)) | 0 (91-100 (No damages)) | 4 (6-10 (Severe damages)) | 5 (0-5 (Death)) | 5 (0-5 (Death)) | 5 (0-5 (Death)) | 5 (0-5 (Death)) | 5 (0-5 (Death)) | 5 (0-5 (Death)) | 17 µg/mL (≈ 49.5 µM)
4 | COc1cc(OC)nc(Oc2ccccc2C=NOCC=Cc2ccccc2Cl)n1 [Compound No. 27] | 12% | 100% | 0 (91-100 (No damages)) | 0 (91-100 (No damages)) | 0 (91-100 (No damages)) | 0 (91-100 (No damages)) | 4 (6-10 (Severe damages)) | 4 (6-10 (Severe damages)) | 5 (0-5 (Death)) | 5 (0-5 (Death)) | 5 (0-5 (Death)) | 5 (0-5 (Death)) | 5 (0-5 (Death)) | 2 µg/mL (≈ 4.7 µM)

Second part, led by results:

Row | Inhibitory activity (%) Pea [1] | Inhibitory activity (%) Barnyardgrass [2] | Compound | Injury Rice (rice) | Injury Peanut (peanut) | Injury Soybean (soybean) | Injury Cotton (cotton) | Herbicidal effects Common lambsquarters (common lambsquarters) | Herbicidal effects Barnyardgrass (barnyardgrass) | Herbicidal effects Redroot pigweed (redroot pigweed) | Herbicidal effects Johnsongrass (johnsongrass) | Herbicidal effects Green foxtail (green foxtail) | Herbicidal effects Large crabgrass (large crabgrass) | Herbicidal effects Foxtail meadow (foxtail meadow) | IC80 (narrowleaf waterplantain)
5 | 0% | 26% | COc1cc(OC)nc(Oc2ccccc2C=NOC(C)c2ccccc2)n1 (centres unmarked) [compound 21] | 0 (91-100 (No damages)) | 0 (91-100 (No damages)) | 0 (91-100 (No damages)) | 0 (91-100 (No damages)) | 3 (11-40 (Medium damages)) | 3 (11-40 (Medium damages)) | 3 (11-40 (Medium damages)) | 5 (0-5 (Death)) | 4 (6-10 (Severe damages)) | 4 (6-10 (Severe damages)) | 3 (11-40 (Medium damages)) | 100 µg/mL (≈ 264 µM)
6 | 0% | 15% | COc1cc(OC)nc(Oc2ccccc2C=NOCc2ccccc2Cl)n1 [compound 16] | 0 (91-100 (No damages)) | 0 (91-100 (No damages)) | 0 (91-100 (No damages)) | 0 (91-100 (No damages)) | 3 (11-40 (Medium damages)) | 3 (11-40 (Medium damages)) | 4 (6-10 (Severe damages)) | 5 (0-5 (Death)) | 5 (0-5 (Death)) | 3 (11-40 (Medium damages)) | 3 (11-40 (Medium damages)) | 100 µg/mL (≈ 250 µM)
7 | 0% | 89% | COc1cc(OC)nc(Oc2ccccc2C=NOCC=Cc2cccc(Cl)c2Cl)n1 [compound 41] | 0 (91-100 (No damages)) | 0 (91-100 (No damages)) | 0 (91-100 (No damages)) | 0 (91-100 (No damages)) | 4 (6-10 (Severe damages)) | 5 (0-5 (Death)) | 5 (0-5 (Death)) | 5 (0-5 (Death)) | 4 (6-10 (Severe damages)) | 5 (0-5 (Death)) | 4 (6-10 (Severe damages)) | 2 µg/mL (≈ 4.34 µM)

Source: patent US5053070A, “Pyrimidine derivatives, preparation processes thereof, herbicide containing the same, and herbicidal compositions containing the same along with other active ingredient” (Mitsui Toatsu Chemicals, Incorporated, priority 1988, dated 1991)
